Data: paper PMC10860182 (ACS Medicinal Chemistry Letters, 2024)
Like-named read-outs stand apart in the source and are kept apart here.

Tests used:
[1] = target: human 5-HT2A (Homo sapiens, UniProt P28223); details: for 5-HT2A % Max: % 5-HT Max, human 5-HT2A-CHO cells; for higher agonist potency for 5-HT2B and 5-HT2C relative to 5-HT2A: compared with 5-HT2A potency
[2] = target: human 5-HT2B (Homo sapiens, UniProt P41595); details: % 5-HT Max, human 5-HT2B-HEK293 cells
[3] = target: human 5-HT2C (Homo sapiens, UniProt P28335); details: % 5-HT Max, human 5-HT2C-CHO cells
[4] = predicted hepatic clearance, human hepatic microsomes
[5] = predicted hepatic clearance, rat
[6] = target: T1, P-gp (Homo sapiens, UniProt P08183); details: MDCK-MDR1 cells, 5 µM
[7] = rat PK cassette, iv, 0.2 mg/kg
[8] = in vivo; details: male, Sprague Dawley, rat, iv, 0.2 mg/kg
[9] = in vitro; details: human, plasma, pH 7.4
[10] = in vitro; details: rat, plasma, pH 7.4
[11] = in vitro; details: mouse, plasma, pH 7.4
[12] = target: T1, P-gp; assay: in vitro; details: MDCK-MDR1
[13] = system: 5-HT2B; details: read-out: 5-HT2B EC50; previously described, patent application ref 20; cited from earlier work

Chain of human 5-HT2A (P28223 whole entry): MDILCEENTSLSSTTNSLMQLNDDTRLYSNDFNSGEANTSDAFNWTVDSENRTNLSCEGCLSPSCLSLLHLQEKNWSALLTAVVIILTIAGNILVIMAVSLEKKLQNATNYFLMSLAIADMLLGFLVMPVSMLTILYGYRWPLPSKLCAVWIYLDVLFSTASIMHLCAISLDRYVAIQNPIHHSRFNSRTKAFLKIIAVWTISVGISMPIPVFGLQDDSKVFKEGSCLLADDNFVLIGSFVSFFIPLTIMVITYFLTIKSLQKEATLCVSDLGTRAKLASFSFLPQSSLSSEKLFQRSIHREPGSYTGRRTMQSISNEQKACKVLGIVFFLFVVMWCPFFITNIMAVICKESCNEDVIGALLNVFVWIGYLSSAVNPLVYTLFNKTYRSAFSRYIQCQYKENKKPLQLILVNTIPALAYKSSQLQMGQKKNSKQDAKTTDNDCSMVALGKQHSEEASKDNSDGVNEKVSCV
Chain of human 5-HT2C (P28335 33-458): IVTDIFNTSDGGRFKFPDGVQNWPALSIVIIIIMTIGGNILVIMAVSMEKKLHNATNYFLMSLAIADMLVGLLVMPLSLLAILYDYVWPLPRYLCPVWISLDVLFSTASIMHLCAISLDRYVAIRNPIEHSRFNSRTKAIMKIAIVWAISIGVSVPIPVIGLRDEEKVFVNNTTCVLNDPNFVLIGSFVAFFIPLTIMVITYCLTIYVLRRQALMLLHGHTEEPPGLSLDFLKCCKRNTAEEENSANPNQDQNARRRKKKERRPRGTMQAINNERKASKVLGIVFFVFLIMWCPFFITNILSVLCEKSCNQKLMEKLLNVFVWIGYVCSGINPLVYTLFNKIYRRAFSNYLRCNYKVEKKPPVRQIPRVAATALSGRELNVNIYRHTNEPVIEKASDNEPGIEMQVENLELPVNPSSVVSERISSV
Chain of human 5-HT2B (P41595 whole entry): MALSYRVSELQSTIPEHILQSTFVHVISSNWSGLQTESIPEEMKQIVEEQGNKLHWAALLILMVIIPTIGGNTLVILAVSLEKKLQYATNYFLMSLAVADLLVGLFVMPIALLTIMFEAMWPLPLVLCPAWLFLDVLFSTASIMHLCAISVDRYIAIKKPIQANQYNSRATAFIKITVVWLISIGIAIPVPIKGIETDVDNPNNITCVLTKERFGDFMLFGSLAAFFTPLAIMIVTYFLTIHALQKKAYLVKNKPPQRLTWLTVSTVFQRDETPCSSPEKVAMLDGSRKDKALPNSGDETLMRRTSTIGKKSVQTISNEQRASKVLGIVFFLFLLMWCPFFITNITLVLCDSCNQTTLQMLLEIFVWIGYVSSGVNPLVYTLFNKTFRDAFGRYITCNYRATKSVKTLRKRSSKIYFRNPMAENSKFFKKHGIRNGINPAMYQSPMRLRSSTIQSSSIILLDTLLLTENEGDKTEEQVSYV
T1 sequence (P08183 whole entry): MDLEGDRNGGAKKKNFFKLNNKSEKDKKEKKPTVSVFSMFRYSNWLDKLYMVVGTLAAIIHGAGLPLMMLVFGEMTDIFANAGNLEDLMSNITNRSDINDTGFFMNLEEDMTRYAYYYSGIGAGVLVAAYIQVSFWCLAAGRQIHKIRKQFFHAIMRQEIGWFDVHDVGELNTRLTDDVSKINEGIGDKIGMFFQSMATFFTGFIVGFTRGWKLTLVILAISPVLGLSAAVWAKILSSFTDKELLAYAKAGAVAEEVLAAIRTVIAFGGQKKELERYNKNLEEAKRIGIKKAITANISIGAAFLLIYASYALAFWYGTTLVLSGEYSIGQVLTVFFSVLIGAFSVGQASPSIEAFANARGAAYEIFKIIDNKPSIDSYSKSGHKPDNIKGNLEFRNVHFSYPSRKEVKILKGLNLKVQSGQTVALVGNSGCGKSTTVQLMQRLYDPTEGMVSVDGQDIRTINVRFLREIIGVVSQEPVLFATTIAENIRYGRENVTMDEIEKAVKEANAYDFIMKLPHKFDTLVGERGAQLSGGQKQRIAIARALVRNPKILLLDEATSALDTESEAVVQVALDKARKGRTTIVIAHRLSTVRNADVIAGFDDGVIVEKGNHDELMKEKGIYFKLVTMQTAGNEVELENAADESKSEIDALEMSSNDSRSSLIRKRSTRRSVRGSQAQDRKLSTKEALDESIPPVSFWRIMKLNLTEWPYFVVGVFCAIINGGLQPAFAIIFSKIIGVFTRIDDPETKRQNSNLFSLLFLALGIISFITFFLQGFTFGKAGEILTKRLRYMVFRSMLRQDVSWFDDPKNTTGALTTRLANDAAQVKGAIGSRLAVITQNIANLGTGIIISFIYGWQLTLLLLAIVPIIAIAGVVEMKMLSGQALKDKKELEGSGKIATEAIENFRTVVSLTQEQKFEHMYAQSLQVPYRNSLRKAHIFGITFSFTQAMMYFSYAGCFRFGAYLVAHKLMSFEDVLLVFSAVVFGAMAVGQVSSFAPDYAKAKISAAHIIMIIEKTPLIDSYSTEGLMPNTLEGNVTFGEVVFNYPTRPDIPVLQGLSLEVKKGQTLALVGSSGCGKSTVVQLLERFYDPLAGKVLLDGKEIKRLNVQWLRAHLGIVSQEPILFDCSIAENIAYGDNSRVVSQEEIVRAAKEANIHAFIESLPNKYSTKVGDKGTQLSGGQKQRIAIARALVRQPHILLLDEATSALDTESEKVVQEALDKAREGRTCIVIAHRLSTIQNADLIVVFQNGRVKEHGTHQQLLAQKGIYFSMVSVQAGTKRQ

Compound: C1=C(c2n[nH]c3ccccc23)CNCC1 [Compound 19a]
- 5-HT2A % Max [1]: 17.5 ± 3.2%
- higher agonist potency for 5-HT2B and 5-HT2C relative to 5-HT2A [1]: approximately 10 fold
- 5-HT2B % Max [2]: 83.8 ± 1.9%
- 5-HT2C % Max [3]: 67.7 ± 6.6%

Compound: CN(C)CCc1n[nH]c2ccc(O)cc12 [Compound 16]
- 5-HT2A % Max [1]: 26.2 ± 1.4%
- 5-HT2B % Max [2]: 53.7%
- 5-HT2C % Max [3]: 53.3%

Compound: [2H]C([2H])(Cc1n[nH]c2ccc(OC)cc12)N(C)C [Compound 6b]
- 5-HT2A % Max [1]: 11.7 ± 0.6%
- 5-HT2B % Max [2]: 60.5%
- 5-HT2C % Max [3]: 32.3%
- CLhep [4]: 11.7 (mL/min)/kg

Compound: Brc1ccc2[nH]nc(C3=CCCNC3)c2c1 [Compound 19d]
- 5-HT2A % Max [1]: 41.4 ± 3.4%
- 5-HT2B % Max [2]: 82.8 ± 1.9%
- 5-HT2C % Max [3]: 93.9%
- CLhep [4]: 5.6 (mL/min)/kg
- CLhep [5]: 58 (mL/min)/kg
- PappA-B [6]: 7.9 10^–6 cm/s
- CLp [7]: 34.2 (mL/min)/kg
- Kp at 0.25 h ([8]; brain): 5.4
- Vd at 24 h ([8]; plasma): 6.33 L/kg
- half-life at 24 h ([8]; plasma): 2.8 h
- fraction unbound at 6 h, 5 µM [9]: 0.12
- fraction unbound at 6 h, 5 µM [10]: 0.13
- fraction unbound at 6 h, 5 µM [11]: 0.12
- efflux ratio at 5 µM [12]: 1.3

Compound: COc1ccc2[nH]nc(C3=CCCNC3)c2c1 [Compound 19f]
- 5-HT2A % Max [1]: 12.3 ± 1.8%
- 5-HT2B % Max [2]: 93.6%
- 5-HT2C % Max [3]: 59.8 ± 3.2%

Compound: Nc1ccc2[nH]nc(C3=CCCNC3)c2c1 [Compound 19e]
- 5-HT2A % Max [1]: 40.4 ± 1.3%
- 5-HT2B % Max [2]: 96.1%
- 5-HT2C % Max [3]: 86.9%

Compound: Cn1nc(C2=CCCNC2)c2ccccc21 [Compound 19b]
- 5-HT2A % Max [1]: 42.2 ± 3.7%
- higher agonist potency for 5-HT2B and 5-HT2C relative to 5-HT2A [1]: approximately 10 fold
- 5-HT2B % Max [2]: 48.0 ± 4.8%
- 5-HT2C % Max [3]: 50.3 ± 2.4%

Compound: COc1ccc2[nH]nc(CCN(C)C)c2c1 [Compound 6a]
- 5-HT2A % Max [1]: 10.7 ± 0.6%
- 5-HT2B % Max [2]: 48.0 ± 7.6%
- 5-HT2C % Max [3]: 32.1 ± 2.2%
- CLhep [4]: 12.1 (mL/min)/kg
- EC50 [13]: > 10 µM
